# From ChEMBL document CHEMBL4715878 (J Med Chem, 2020)
# Activity calls are given as the source filed them. The rule behind the calls is not given here.
# Key:
# [1] = biological target: T1, Receptor tyrosine-protein kinase erbB-2 (Homo sapiens, UniProt P04626); assay: Inhibition of wild-type HER2 (unknown origin) at 0.5 nM in presence of substrate incubated for 30 mins by ADP-Glo assay relative to control
# [2] = test system: BT-474; assay: Antitumor activity against human BT474 cells xenografted in athymic nude mouse assessed as tumor weight at 50 mg/kg, po administered via oral gavage for 5 times in a week for 55 days measured post last dose (reference value: 2.046 g); type: functional; conditions: time 55 day
# [3] = Antiproliferative activity against human BC assessed as lethality at 10 uM after 48 hrs by SRB assay relative to control; type: functional
# [4] = test system: BT-474; assay: Induction of apoptosis in human BT474 cells assessed as increase in early apoptotic cells incubated for 72 hrs by Annexin V-FITC/PI staining based flow cytometry analysis; type: functional, cell-based; conditions: dose 0.1-5 µM
# [5] = test system: MDA-MB-231; assay: Induction of apoptosis in human MDA-MB-231 cells assessed as accumulation in late apoptotic cells at 5 uM incubated for 72 hrs by Annexin V-FITC/PI staining based flow cytometry analysis; type: functional, cell-based
# [6] = biological target: T1, Receptor tyrosine-protein kinase erbB-2; assay: Inhibition of HER2 (unknown origin) in presence of substrate incubated for 30 mins by ADP-Glo assay
# [7] = in vitro; conditions: CD-1, mouse, liver microsomes
# Description: Metabolic stability in CD-1 mouse liver microsomes assessed as parent compound remaining at 100 uM measured after 60 mins in presence of NADPH by LC-MS/MS analysis
# [8] = test system: MCF7; assay: Induction of apoptosis in human MCF7 cells assessed as accumulation in late apoptotic cells at 5 uM incubated for 72 hrs by Annexin V-FITC/PI staining based flow cytometry analysis; type: functional, cell-based
# [9] = test system: MCF7; assay: Induction of apoptosis in human MCF7 cells assessed as accumulation in early apoptotic cells at 5 uM incubated for 72 hrs by Annexin V-FITC/PI staining based flow cytometry analysis; type: functional, cell-based
# [10] = in vitro; conditions: CD-1, mouse, liver microsomes; remark: listed apart in the source
# Description: Metabolic stability in CD-1 mouse liver microsomes assessed as parent compound remaining at 100 uM measured after 60 mins by LC-MS/MS analysis
# [11] = test system: MCF7; assay: Potency index, ratio of lapatinib IC50 to test compound IC50 for antiproliferative activity against human MCF7 cells; type: functional
# [12] = test system: BT-474; assay: Antitumor activity against human BT474 cells xenografted in athymic nude mouse assessed as suppression of tumor growth by measuring decrease in number of Ki67 positive cells at 50 mg/kg, po administered via oral gavage for 5 times per week for 55 days measured post-last dose by Ki67-staining based immunohistochemistry; type: functional, organism-based; conditions: time 55.0 day
# [13] = Antiproliferative activity against human BC assessed as cell growth inhibition at 10 uM after 48 hrs by SRB assay relative to control; type: functional; conditions: read-out: GI
# [14] = test system: MDA-MB-231; assay: Antiproliferative activity against human MDA-MB-231 cells assessed as reduction in cell viability incubated for 72 hrs by WST8 assay; type: functional, cell-based; conditions: MDA-MB-231, 72 h
# [15] = test system: BT-474; assay: Induction of apoptosis in human BT474 cells assessed as increase in early apoptotic cells at 0.5 to 5 uM incubated for 72 hrs by Annexin V-FITC/PI staining based flow cytometry analysis relative to control; type: functional; conditions: dose 0.5-5 µM
# [16] = test system: BT-474; assay: Antitumor activity against human BT474 cells xenografted in athymic nude mouse assessed as inflammation in tumors at 50 mg/kg, po administered via oral gavage for 5 times per week for 55 days measured post-last dose by H and E staining based immunohistochemical analysis; type: functional, organism-based; conditions: time 55.0 day
# [17] = test system: T47D; assay: Antiproliferative activity against human T47D cells assessed as cell growth inhibition after 48 hrs by SRB assay; type: functional; conditions: pooled result: one value given for 5 cell lines, strains, targets or settings
# [18] = test system: AU565; assay: Down regulation of HER2 expression in human AU565 cells at 0.1 IC50 incubated for 24 hrs by western blot analysis; type: functional, cell-based
# [19] = test system: MCF7; assay: Antiproliferative activity against human MCF7 cells assessed as lethality at 10 uM after 48 hrs by SRB assay relative to control; type: functional
# [20] = test system: MDA-MB-468; assay: Antiproliferative activity against human MDA-MB-468 cells assessed as cell growth inhibition after 48 hrs by SRB assay; type: functional
# [21] = test system: BT-474; assay: Antitumor activity against human BT474 cells xenografted in athymic nude mouse assessed as reduction in metastasis of cells at 50 mg/kg, po administered via oral gavage for 5 times per week for 55 days measured post-last dose; type: functional, organism-based; conditions: time 55.0 day
# [22] = test system: MDA-MB-231; assay: Induction of apoptosis in human MDA-MB-231 cells assessed as accumulation in early apoptotic cells at 5 uM incubated for 72 hrs by Annexin V-FITC/PI staining based flow cytometry analysis; type: functional, cell-based
# [23] = test system: Panel NCI-60 (60 carcinoma cell lines); assay: Antiproliferative activity against human NCI60 cells assessed as mean cell growth at 10 uM after 48 hrs by SRB assay relative to control; type: functional
# [24] = test system: MDA-MB-468; assay: Antiproliferative activity against human MDA-MB-468 cells assessed as lethality at 10 uM after 48 hrs by SRB assay relative to control; type: functional
# [25] = in vitro; conditions: CD-1, mouse, liver microsomes; remark: listed apart in the source
# [26] = in vitro; conditions: CD-1, mouse, microsomes
# [27] = test system: BT-474; assay: Antiproliferative activity against human BT474 cells assessed as reduction in cell viability incubated for 72 hrs by WST8 assay; type: functional, cell-based; conditions: BT-474, 72 h
# [28] = test system: MCF7; assay: Antiproliferative activity against human MCF7 cells assessed as reduction in cell viability incubated for 72 hrs by WST8 assay; type: functional, cell-based; conditions: MCF7, 72 h
# [29] = Antiproliferative activity against human MDA-MB-231 cells assessed as lethality at 10 uM after 48 hrs by SRB assay relative to control; type: functional, MDA-MB-23
# [30] = test system: BT-474; assay: Antitumor activity against human BT474 cells xenografted in athymic nude mouse assessed as appearance of tumor fibrosis at 50 mg/kg, po administered via oral gavage for 5 times in a week for 55 days measured post-last dose by H and E staining based immunohistochemical analysis; type: functional, organism-based; conditions: time 55.0 day
# [31] = test system: BT-474; assay: Induction of apoptosis in human BT474 cells assessed as increase in late apoptotic cells at 0.5 to 5 uM incubated for 72 hrs by Annexin V-FITC/PI staining based flow cytometry analysis relative to control; type: functional; conditions: dose 0.5-5 µM
# [32] = test system: BT-474; assay: Antitumor activity against human BT474 cells xenografted in athymic nude mouse assessed as tumor necrosis at 50 mg/kg, po administered via oral gavage for 5 times in a week for 55 days measured post-last dose by H and E staining based immunohistochemical analysis; type: functional, organism-based; conditions: time 55.0 day
# [33] = test system: MDA-MB-468; assay: Antiproliferative activity against human MDA-MB-468 cells assessed as cell growth inhibition at 10 uM after 48 hrs by SRB assay relative to control; type: functional; conditions: read-out: GI
# [34] = in vitro; conditions: CD-1, mouse, liver microsomes; remark: listed apart in the source
# [35] = test system: Panel NCI-60 (60 carcinoma cell lines); assay: Antiproliferative activity against human NCI60 cells assessed as lethality at 10 uM after 48 hrs by SRB assay relative to control; type: functional
# [36] = test system: BT-474; assay: Antitumor activity against human BT474 cells xenografted in athymic nude mouse assessed as tumor growth inhibition at 50 mg/kg, po administered via oral gavage for 5 times in a week for 55 days measured post last dose; type: functional, organism-based; conditions: time 55.0 day
# [37] = biological target: T1, Receptor tyrosine-protein kinase erbB-2; assay: Inhibition of wild-type HER2 (unknown origin) at 100 nM in presence of substrate incubated for 30 mins by ADP-Glo assay relative to control
# [38] = test system: AU565; assay: Antiproliferative activity against human AU565 cells assessed as reduction in cell viability incubated for 72 hrs by WST8 assay; type: functional, cell-based; conditions: AU565, 72 h
# [39] = test system: BT-474; assay: Down regulation of HER2 expression in human BT474 cells at 0.1 IC50 after 24 to 48 hrs by Western blot analysis; type: functional, cell-based; conditions: time 24-48 hrs
# [40] = biological target: T1, Receptor tyrosine-protein kinase erbB-2; assay: Inhibition of HER2 in human BT474 cells assessed as reduction in Erk1/2 phosphorylation at 0.1 IC50 incubated for 24 to 48 hrs by western blot analysis; type: cell-based; conditions: BT-474, time 24-48 hrs
# [41] = biological target: T1, Receptor tyrosine-protein kinase erbB-2; assay: Inhibition of HER2 in human BT474 cells assessed as reduction in Akt phosphorylation at 0.5 IC50 incubated for 24 to 48 hrs by western blot analysis; type: cell-based; conditions: BT-474, time 24-48 hrs
# [42] = biological target: Receptor tyrosine-protein kinase erbB-4 (Homo sapiens, UniProt Q15303); assay: Effect on human recombinant N-terminal GST-tagged HER4 (682 to 993) expressed in baculovirus infected Sf9 insect cells in presence of substrate and [gamma-32ATP] at 10 uM incubated for 30 mins by scintillation counting based radiometry assay relative to control; conditions: 0.5 h, read-out: Activity
# Sequence of Receptor tyrosine-protein kinase erbB-4 (Q15303 whole entry): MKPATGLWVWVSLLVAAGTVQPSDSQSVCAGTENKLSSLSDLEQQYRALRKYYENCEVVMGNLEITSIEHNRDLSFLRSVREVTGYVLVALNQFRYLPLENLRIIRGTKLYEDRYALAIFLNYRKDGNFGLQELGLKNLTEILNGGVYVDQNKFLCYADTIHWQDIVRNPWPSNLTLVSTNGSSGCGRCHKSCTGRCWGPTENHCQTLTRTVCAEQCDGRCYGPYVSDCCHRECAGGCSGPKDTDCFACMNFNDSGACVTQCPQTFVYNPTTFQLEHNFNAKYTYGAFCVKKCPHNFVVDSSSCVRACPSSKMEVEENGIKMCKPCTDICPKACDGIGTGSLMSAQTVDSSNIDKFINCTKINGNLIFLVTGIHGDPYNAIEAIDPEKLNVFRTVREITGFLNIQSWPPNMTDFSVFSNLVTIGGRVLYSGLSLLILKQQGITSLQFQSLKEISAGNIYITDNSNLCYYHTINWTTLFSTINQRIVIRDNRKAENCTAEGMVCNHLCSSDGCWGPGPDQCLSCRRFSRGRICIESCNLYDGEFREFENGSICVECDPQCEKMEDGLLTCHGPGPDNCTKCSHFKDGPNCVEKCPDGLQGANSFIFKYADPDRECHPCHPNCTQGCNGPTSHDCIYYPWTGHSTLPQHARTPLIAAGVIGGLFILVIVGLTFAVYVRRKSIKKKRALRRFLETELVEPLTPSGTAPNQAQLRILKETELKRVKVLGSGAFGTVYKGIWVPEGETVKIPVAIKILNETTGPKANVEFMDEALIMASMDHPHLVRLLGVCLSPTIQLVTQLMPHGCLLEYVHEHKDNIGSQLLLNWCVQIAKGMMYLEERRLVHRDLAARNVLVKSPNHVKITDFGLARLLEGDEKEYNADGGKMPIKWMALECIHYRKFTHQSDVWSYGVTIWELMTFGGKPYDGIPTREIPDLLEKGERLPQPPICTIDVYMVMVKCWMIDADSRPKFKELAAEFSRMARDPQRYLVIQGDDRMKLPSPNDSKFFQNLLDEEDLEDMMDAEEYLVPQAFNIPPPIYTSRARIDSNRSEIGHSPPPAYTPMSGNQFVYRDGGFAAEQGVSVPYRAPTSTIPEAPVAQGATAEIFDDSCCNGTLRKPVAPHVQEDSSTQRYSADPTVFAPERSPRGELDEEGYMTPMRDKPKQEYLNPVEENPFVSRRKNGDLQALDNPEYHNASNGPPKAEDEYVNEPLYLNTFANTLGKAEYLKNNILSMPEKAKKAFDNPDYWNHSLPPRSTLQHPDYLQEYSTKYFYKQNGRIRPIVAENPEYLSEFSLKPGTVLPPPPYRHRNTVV
# [43] = biological target: Platelet-derived growth factor receptor alpha (Homo sapiens, UniProt P16234); assay: Effect on human recombinant N-terminal GST-tagged PDGFRalpha (550 to end residues) expressed in baculovirus infected Sf9 insect cells in presence of substrate and [gamma-32ATP] at 10 uM incubated for 30 mins by scintillation counting based radiometry assay relative to control; conditions: 0.5 h, read-out: Activity
# Sequence of Platelet-derived growth factor receptor alpha (P16234 whole entry): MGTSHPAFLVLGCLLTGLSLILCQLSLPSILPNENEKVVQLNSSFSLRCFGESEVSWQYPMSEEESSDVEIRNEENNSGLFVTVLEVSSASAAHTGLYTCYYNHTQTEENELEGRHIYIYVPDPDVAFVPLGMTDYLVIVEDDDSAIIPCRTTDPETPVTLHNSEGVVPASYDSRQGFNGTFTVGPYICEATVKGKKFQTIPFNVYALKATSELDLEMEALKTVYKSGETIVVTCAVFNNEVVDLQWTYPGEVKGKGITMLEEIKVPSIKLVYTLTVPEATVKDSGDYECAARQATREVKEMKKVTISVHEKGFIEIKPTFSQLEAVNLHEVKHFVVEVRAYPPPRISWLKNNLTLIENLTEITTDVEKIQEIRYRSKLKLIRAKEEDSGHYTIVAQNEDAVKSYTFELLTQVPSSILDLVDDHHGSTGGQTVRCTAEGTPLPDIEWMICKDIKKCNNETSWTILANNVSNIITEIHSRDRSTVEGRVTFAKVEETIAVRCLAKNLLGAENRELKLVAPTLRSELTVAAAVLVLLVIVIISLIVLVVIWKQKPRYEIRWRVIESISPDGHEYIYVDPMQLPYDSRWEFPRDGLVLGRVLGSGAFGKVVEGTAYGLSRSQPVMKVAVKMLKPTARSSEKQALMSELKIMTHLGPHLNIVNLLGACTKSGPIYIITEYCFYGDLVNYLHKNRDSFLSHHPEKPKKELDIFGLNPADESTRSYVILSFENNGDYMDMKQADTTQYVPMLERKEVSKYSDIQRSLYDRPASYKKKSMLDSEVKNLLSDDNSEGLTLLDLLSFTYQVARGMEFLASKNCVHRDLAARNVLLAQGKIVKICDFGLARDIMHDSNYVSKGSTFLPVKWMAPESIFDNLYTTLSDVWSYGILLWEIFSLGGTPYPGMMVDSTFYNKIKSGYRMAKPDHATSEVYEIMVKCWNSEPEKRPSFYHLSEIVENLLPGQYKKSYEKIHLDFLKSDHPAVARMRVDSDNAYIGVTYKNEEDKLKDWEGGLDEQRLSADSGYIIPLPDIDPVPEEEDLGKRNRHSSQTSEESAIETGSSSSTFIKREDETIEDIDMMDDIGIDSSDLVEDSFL
# [44] = biological target: T1, Receptor tyrosine-protein kinase erbB-2; assay: Inhibition of HER2 in human BT474 cells assessed as reduction in Akt phosphorylation at 0.5 IC50 after 24 to 48 hrs by Western blot analysis; type: cell-based; conditions: BT-474, time 24-48 hrs
# [45] = biological target: T1, Receptor tyrosine-protein kinase erbB-2; assay: Inhibition of HER2 in human BT474 cells assessed as reduction in Akt phosphorylation at 0.1 IC50 incubated for 24 to 48 hrs by western blot analysis; type: cell-based; conditions: BT-474, time 24-48 hrs
# [46] = biological target: Epidermal growth factor receptor (Homo sapiens, UniProt P00533); conditions: 0.5 h
# Sequence of Epidermal growth factor receptor (P00533 whole entry): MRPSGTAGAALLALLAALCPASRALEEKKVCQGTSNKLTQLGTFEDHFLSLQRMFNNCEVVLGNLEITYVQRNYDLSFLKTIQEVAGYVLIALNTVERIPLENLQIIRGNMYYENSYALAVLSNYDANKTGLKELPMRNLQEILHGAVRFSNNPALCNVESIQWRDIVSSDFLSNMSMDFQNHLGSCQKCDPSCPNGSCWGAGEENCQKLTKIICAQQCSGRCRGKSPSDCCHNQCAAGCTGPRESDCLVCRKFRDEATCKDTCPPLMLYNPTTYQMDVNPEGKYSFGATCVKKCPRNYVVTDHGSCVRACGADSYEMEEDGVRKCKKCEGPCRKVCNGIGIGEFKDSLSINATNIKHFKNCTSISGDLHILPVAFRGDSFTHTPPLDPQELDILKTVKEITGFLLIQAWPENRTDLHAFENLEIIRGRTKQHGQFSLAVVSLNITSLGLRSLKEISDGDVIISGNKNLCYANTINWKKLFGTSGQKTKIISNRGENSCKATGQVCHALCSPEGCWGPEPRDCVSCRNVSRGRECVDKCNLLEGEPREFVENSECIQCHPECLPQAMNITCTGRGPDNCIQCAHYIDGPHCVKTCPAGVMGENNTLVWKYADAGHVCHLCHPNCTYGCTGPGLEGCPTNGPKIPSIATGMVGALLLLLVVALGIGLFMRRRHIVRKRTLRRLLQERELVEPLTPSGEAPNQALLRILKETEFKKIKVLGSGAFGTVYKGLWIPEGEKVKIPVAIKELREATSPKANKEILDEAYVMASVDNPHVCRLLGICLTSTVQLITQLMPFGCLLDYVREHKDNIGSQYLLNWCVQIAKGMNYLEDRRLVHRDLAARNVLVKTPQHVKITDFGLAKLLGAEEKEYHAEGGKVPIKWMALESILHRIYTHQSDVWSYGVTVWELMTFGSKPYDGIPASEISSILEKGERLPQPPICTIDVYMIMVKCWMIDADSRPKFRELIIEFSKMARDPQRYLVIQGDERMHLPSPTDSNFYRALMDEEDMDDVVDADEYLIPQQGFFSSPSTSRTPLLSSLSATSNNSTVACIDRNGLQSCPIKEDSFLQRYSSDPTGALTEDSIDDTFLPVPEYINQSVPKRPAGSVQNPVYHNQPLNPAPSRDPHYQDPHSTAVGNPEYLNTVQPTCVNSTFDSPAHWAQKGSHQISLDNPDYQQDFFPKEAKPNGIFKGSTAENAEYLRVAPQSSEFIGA
# Description: Effect on human EGFR in presence of substrate and [gamma-32ATP] at 10 uM incubated for 30 mins by scintillation counting based radiometry assay relative to control
# [47] = test system: BT-474; assay: Down regulation of HER2 expression in human BT474 cells at 0.5 IC50 after 24 to 48 hrs by Western blot analysis; type: functional, cell-based; conditions: time 24-48 hrs
# [48] = biological target: T1, Receptor tyrosine-protein kinase erbB-2; assay: Inhibition of HER2 in human BT474 cells assessed as reduction in Erk1/2 phosphorylation at 0.5 IC50 incubated for 24 to 48 hrs by western blot analysis; type: cell-based; conditions: BT-474, time 24-48 hrs
# [49] = biological target: T1, Receptor tyrosine-protein kinase erbB-2; assay: Inhibition of HER2 in human BT474 cells assessed as reduction in Akt phosphorylation at 0.1 IC50 after 24 to 48 hrs by Western blot analysis; type: cell-based; conditions: BT-474, time 24-48 hrs
# [50] = biological target: T1, Receptor tyrosine-protein kinase erbB-2; conditions: Sf9, human, 0.5 h
# T1 sequence (P04626 whole entry): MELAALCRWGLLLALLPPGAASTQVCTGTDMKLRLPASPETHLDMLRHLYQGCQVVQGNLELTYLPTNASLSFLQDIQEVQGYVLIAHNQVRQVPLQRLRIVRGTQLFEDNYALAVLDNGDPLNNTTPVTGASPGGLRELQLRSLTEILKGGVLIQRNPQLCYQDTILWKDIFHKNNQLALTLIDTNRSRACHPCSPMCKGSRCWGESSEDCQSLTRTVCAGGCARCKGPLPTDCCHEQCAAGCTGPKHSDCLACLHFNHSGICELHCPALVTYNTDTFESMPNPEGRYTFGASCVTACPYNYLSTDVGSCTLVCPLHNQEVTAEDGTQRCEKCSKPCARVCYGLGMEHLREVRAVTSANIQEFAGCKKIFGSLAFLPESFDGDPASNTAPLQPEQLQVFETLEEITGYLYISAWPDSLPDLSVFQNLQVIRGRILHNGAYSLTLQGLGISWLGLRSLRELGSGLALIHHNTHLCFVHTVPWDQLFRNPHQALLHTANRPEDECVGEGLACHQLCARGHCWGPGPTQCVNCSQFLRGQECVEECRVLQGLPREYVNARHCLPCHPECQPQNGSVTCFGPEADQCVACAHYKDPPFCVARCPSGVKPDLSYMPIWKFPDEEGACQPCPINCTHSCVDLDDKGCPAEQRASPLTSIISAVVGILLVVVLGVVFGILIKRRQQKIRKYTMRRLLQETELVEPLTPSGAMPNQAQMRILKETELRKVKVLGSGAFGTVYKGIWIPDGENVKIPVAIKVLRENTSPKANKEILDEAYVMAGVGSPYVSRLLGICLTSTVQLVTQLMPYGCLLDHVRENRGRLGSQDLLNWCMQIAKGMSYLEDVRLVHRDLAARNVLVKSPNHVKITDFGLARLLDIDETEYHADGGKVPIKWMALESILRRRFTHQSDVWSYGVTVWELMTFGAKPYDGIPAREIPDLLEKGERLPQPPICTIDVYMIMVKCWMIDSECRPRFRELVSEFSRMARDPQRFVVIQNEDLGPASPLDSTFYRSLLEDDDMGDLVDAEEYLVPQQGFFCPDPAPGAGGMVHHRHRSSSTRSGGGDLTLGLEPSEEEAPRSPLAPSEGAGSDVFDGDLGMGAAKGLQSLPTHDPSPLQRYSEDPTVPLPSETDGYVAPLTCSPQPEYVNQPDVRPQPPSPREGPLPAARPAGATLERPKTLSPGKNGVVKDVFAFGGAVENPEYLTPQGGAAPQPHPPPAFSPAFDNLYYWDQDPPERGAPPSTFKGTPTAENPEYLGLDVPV
smiles,measurement,setting,value
CN1CCN(CCCOc2ccc3ncnc(Nc4ccc(OCc5cccc(F)c5)c(Cl)c4)c3c2)CC1,inhibition,[1],3%
same,Activity,[2],1.223 g
same,Activity,[3],<=78.7%
same,Activity,[4],Dose-dependent effect
same,Activity,[5],inactive
same,IC50,[6],8.3 nM
same,"remaining at 1 h, 100 µM",[7],46.4%
same,Activity,[8],inactive
same,Activity,[9],inactive
same,"remaining at 1 h, 100 µM",[10],93.5%
same,Ratio IC50,[11],<=20
same,Activity,[12],Active
same,inhibition of growth at 10 µM,[13],≤ 78.7%
same,IC50,[14],737 nM
same,fold change (FC),[15],<=6
same,Activity,[16],Active
same,GI50,[17],1370 nM
same,Activity,[18],Active
same,Activity,[19],11.7%
same,GI50,[20],400 nM
same,Activity,[21],Active
same,Activity,[22],inactive
same,Activity,[23],11.85%
same,Activity,[24],11.7%
same,"half-life at 1 h, 100 µM",[25],57.4 min
same,"microsomal CLint at 1 h, 100 µM",[26],24.2 µL/min/mg
same,IC50,[27],83 nM
same,IC50,[28],1930 nM
same,Activity,[29],11.7%
same,Activity,[30],Active
same,fold change (FC),[31],<=3
same,Activity,[32],Active
same,inhibition of growth at 10 µM,[33],18.8%
same,"CLint scaled at 1 h, 100 µM",[34],95.7 mL/min/kg
same,Activity,[35],1.3%
same,TGI,[36],Active
same,inhibition,[37],91%
same,IC50,[38],99 nM
O=C(Nc1ccc2ncnc(Nc3ccc(Oc4cccc(F)c4)c(Cl)c3)c2c1)c1ccc(CNCCO)cc1,inhibition,[1],3%
same,Activity,[2],0.572 g
same,Activity,[3],<=78.7%
same,Activity,[4],Dose-dependent effect
same,Activity,[39],Active
same,inhibition,[40],Active
same,inhibition,[41],Active
same,IC50,[6],12 nM
same,"remaining at 1 h, 100 µM",[7],103%
same,activity at 10 µM,[42],-98%
same,"remaining at 1 h, 100 µM",[10],100%
same,activity at 10 µM,[43],-4%
same,Activity,[12],Active
same,inhibition of growth at 10 µM,[13],≤ 78.7%
same,IC50,[14],5230 nM
same,inhibition,[44],Active
same,fold change (FC),[15],<=6
same,Activity,[16],Active
same,inhibition,[45],Active
same,activity at 10 µM,[46],-70%
same,Activity,[19],18%
same,GI50,[20],600 nM
same,Activity,[21],Active
same,Activity,[23],11.85%
same,Activity,[24],18%
same,"half-life at 1 h, 100 µM",[25],> 145 min
same,"microsomal CLint at 1 h, 100 µM",[26],< 9.6 µL/min/mg
same,IC50,[27],204 nM
same,Activity,[47],Active
same,inhibition,[48],Active
same,IC50,[28],5640 nM
same,inhibition,[49],Active
same,Activity,[29],18%
same,Activity,[30],Active
same,Activity,[31],inactive
same,Activity,[32],Active
same,inhibition of growth at 10 µM,[33],18.8%
same,"CLint scaled at 1 h, 100 µM",[34],< 38 mL/min/kg
same,activity at 10 µM,[50],-92%
same,Activity,[35],1.3%
same,TGI,[36],Active
same,IC50,[38],205 nM
